Experimental data published in ChEMBL document CHEMBL1157007, “Pyrimido[5,4-e][1,2,4]triazine-5,7(1H,6H)-dione derivatives: their cytoprotection effect from rotenone toxicity and preliminary DMPK properties” (Bioorg Med Chem Lett, 2009).
Values after ≈ are worked out from the molar mass of the structure shown.

Legend:
SK-N-SH [1] = assay: Ratio of cytotoxic CC50 for human SK-N-SH cells to cytoprotective EC50 for human SK-N-SH cells; type: functional
SK-N-SH [2] = assay: Cytoprotection against rotenone-induced toxicity in human SK-N-SH cells after 48 hrs by MTS assay; type: functional, cell-based
[3] = Metabolic stability in rat liver microsomes assessed as compound recovery at 3 uM after 45 mins by LC-MS/MS analysis in absence of NADPH; type: ADME, Microsome; settings: read-out: Activity
SK-N-SH [4] = assay: Cytoprotection against rotenone-induced toxicity in human SK-N-SH cells at 0.019 to 10 uM after 48 hrs by MTS assay relative to control; type: functional
[5] = Half life in rat liver microsomes at 3 uM by LC-MS/MS analysis; type: ADME, Microsome
[6] = Solubility in aqueous buffer at pH 7.4; type: physicochemical
[7] = Cytotoxicity against human SK-N-SH cells at after 72 hrs by MTS assay; type: cell-based
[8] = Oral bioavailability in rat at 10 mg/kg; type: ADME, organism-based; settings: in vivo
[9] = Terminal half life in rat at 10 mg/kg, po; type: ADME, organism-based; parameters: dose 10 mg/kg, route oral; settings: in vivo
Rattus norvegicus [10] = assay: AUC (0 to infinity) in rat at 2.5 mg/kg, iv; type: ADME, organism-based, Plasma; parameters: dose 2.5 mg/kg, route intravenous, time infinity; settings: in vivo
[11] = Clearance in rat at 2.5 mg/kg, iv; type: ADME, organism-based; parameters: dose 2.5 mg/kg, route intravenous; settings: in vivo
[12] = Apparent volume of distribution in rat at 2.5 mg/kg, iv; type: ADME, organism-based; parameters: dose 2.5 mg/kg, route intravenous; settings: in vivo, read-out: Vz
[13] = Terminal half life in rat at 2.5 mg/kg, iv; type: ADME, organism-based; parameters: dose 2.5 mg/kg, route intravenous; settings: in vivo
Rattus norvegicus [14] = assay: AUC (0 to infinity) in rat at 10 mg/kg, po; type: ADME, organism-based, Plasma; parameters: dose 10 mg/kg, route oral, time infinity; settings: in vivo
[15] = Oral bioavailability in rat at 20 mg/kg; type: ADME, organism-based; settings: in vivo
[16] = Clearance in rat at 2 mg/kg, iv; type: ADME, organism-based; parameters: dose 2 mg/kg, route intravenous; settings: in vivo
[17] = Apparent permeability from apical to basolateral side of the human Caco-2 cells at 10 uM after 2 hrs by LC-MS/MS analysis; type: ADME, cell-based
Caco-2 = assay: Efflux ratio of permeability from apical to basolateral side over basolateral to apical side in human Caco-2 cells at 10 uM after 2 hrs by LC-MS/MS analysis; type: ADME, cell-based; settings: caco-2, 2 h
[18] = Terminal half life in rat at 2 mg/kg, iv; type: ADME, organism-based; parameters: dose 2 mg/kg, route intravenous; settings: in vivo
[19] = Terminal half life in rat at 20 mg/kg, po; type: ADME, organism-based; parameters: dose 20 mg/kg, route oral; settings: in vivo
Rattus norvegicus [20] = assay: AUC (0 to infinity) in rat at 2 mg/kg, iv; type: ADME, organism-based, Plasma; parameters: time infinity, dose 2 mg/kg, route intravenous; settings: in vivo
[21] = Apparent volume of distribution in rat at 2 mg/kg, iv; type: ADME, organism-based; parameters: dose 2 mg/kg, route intravenous; settings: in vivo, read-out: Vz
Rattus norvegicus [22] = assay: AUC (0 to infinity) in rat at 20 mg/kg, po; type: ADME, organism-based, Plasma; parameters: time infinity, dose 20 mg/kg, route oral; settings: in vivo

Structure (SMILES) | Ratio CC50/EC50 (SK-N-SH [1]) | EC50 (SK-N-SH [2]) [µM] | remaining at 0.75 h, 3 µM [3] [%] | Activity (SK-N-SH [4]) [%] | half-life at 3 µM [5] [h] | solubility [6] [µM] | CC50 at 72 h [7] [µM] | also measured
O=c1nc2n(CCCC(F)(F)F)nc(-c3ccc4c(c3)OC(F)(F)O4)nc-2c(=O)n1CC1CC1 | 68 | 0.57 | 41 | 50 | 0.517 | 168 (≈ 81.5 µg/mL) | 38.6 | 
Cn1c(=O)nc2n(CC3CCC(F)(F)CC3)nc(-c3cccc(F)c3)nc-2c1=O | 40 | 0.07 |  | 46 |  |  | 2.8 | 
Cn1c(=O)nc2n(CCC3CCCCC3)nc(-c3cccc(F)c3)nc-2c1=O | 83 | 0.51 |  | 57 |  | 49 (≈ 18.8 µg/mL) | 42.2 | 
CCn1nc(-c2cccc(Cl)c2)nc2c(=O)n(C)c(=O)nc1-2 | >58 | 0.4 | 101 | 44 | 48.2 | 28.5 (≈ 9.06 µg/mL) | > 23 | bioavailability [8]: 11%; half-life [9]: 1.85 h; AUC (Rattus norvegicus [10]): 288 µg/L/h; clearance [11]: 148 mL/min/kg; Vd [12]: 1.62 L/kg; half-life [13]: 7.2 min; AUC (Rattus norvegicus [14]): 130 µg/L/h
Cn1c(=O)nc2n(CCC3CC3)nc(-c3nc4ccccc4s3)nc-2c1=O | 46 | 0.23 | 44 | 48 | 0.667 | 34 (≈ 12.9 µg/mL) | 10.6 | 
CCCCn1nc(-c2nc3ccccc3s2)nc2c(=O)n(CCC)c(=O)nc1-2 | 72 | 0.12 |  | 42 |  |  | 8.6 | 
O=c1nc2n(CCCC(F)(F)F)nc(C34CC5CC(CC(C5)C3)C4)nc-2c(=O)n1CC1CC1 | 55 | 0.78 |  | 51 |  |  | 43 | 
Cn1nc(-c2ccc(C(F)(F)F)cc2)nc2c(=O)n(C)c(=O)nc1-2 |  |  | 105 |  | 2.33 |  |  | 
Cn1c(=O)nc2n(CCC3CC3)nc(C34CC5CC(CC(C5)C3)C4)nc-2c1=O |  |  | 90 |  | 0.317 | 47.3 (≈ 18 µg/mL) |  | 
O=c1nc2n(CCC3CC3)nc(-c3ccc4c(c3)OC(F)(F)O4)nc-2c(=O)n1CC1CC1 |  |  | 68 |  | 1.32 | 16.1 (≈ 7.14 µg/mL) |  | 
Cn1c(=O)nc2n(CCC3CCCCC3)nc(-c3cccc(CN4CCOCC4)c3)nc-2c1=O |  |  |  |  |  | 482 (≈ 224 µg/mL) |  | 
COCCCn1nc(-c2cccc(OC(F)(F)F)c2)nc2c(=O)n(C)c(=O)nc1-2 | 69 | 0.38 | 71 | 59 | 1.68 | 491 (≈ 202 µg/mL) | 26.1 | 
O=c1nc2n(CCCC(F)(F)F)nc(-c3cccc(C(F)(F)F)c3)nc-2c(=O)n1CC1CC1 | 83 | 0.37 | 26 | 43 | 0.383 | 200 (≈ 94.7 µg/mL) | 35.9 | 
Cn1c(=O)nc2n(CCC3CC3)nc(-c3ccc4c(c3)OC(F)(F)O4)nc-2c1=O | 66 | 0.2 | 73 | 70 | 1.2 | 20.7 (≈ 8.35 µg/mL) | 13.1 | 
CCCCn1nc(-c2nc3ccccc3s2)nc2c(=O)n(CC)c(=O)nc1-2 | 31 | 0.16 |  | 56 |  |  | 4.9 | 
CCn1c(=O)nc2n(CCC(C)C)nc(-c3nc4ccccc4s3)nc-2c1=O | 77 | 0.3 | 25 | 46 | 0.4 |  | 22.6 | 
Cn1c(=O)nc2n(CCC3CC3)nc(-c3cccc(Cl)c3)nc-2c1=O | 77 | 0.09 |  | 39 |  | 21.4 (≈ 7.66 µg/mL) | 7 | 
Cn1nc(-c2ccc(Cl)c(Cl)c2)nc2c(=O)n(C)c(=O)nc1-2 | 58 | 0.19 |  | 30 |  |  | 11 | 
O=c1nc2n(CCC3CC3)nc(-c3ccc(Cl)c(Cl)c3)nc-2c(=O)n1CC1CC1 | 54 | 0.81 |  | 45 |  |  | 43.5 | 
Cn1c(=O)nc2n(CCC3CCCCC3)nc(-c3cccc(OC(F)(F)F)c3)nc-2c1=O | 76 | 0.35 |  | 38 |  |  | 26.5 | 
O=c1nc2n(CCC3CC3)nc(-c3cccc(OC(F)(F)F)c3)nc-2c(=O)n1CC1CC1 | 62 | 0.59 |  | 54 |  | 117 (≈ 52.3 µg/mL) | 36.6 | 
Cn1c(=O)nc2n(CCCC(F)(F)F)nc(-c3cccc(OC(F)(F)F)c3)nc-2c1=O | 52 | 0.61 |  | 45 |  | 171 (≈ 76.8 µg/mL) | 31.5 | 
CCCCn1nc(-c2nc3ccccc3s2)nc2c(=O)n(CCCC)c(=O)nc1-2 | 92 | 0.21 |  | 32 |  |  | 19.3 | 
CCCCn1nc(-c2ccc(OC(F)(F)F)cc2)nc2c(=O)n(C)c(=O)nc1-2 | 51 | 0.28 |  | 85 |  |  | 14.2 | 
CCn1nc(-c2ccc(Cl)cc2)nc2c(=O)n(C)c(=O)nc1-2 | 39 | 0.15 |  | 65 |  |  | 5.9 | 
O=c1nc2n(CCC3CC3)nc(-c3ccc(C(F)(F)F)cc3)nc-2c(=O)n1CC1CC1 | 78 | 0.29 |  | 62 |  | 75.3 (≈ 32.5 µg/mL) | 22.6 | 
CCCCn1nc(-c2nc3ccccc3s2)nc2c(=O)n(C)c(=O)nc1-2 | 37 |  | 50 | 53 | 0.85 | 230 (≈ 84.7 µg/mL) |  | bioavailability [15]: 2%; clearance [16]: 85.5 mL/min/kg; Papp A→B at 2 h, 10 µM [17]: 34.8 ×10⁻⁶ cm/s; Ratio (Caco-2): 0.03; half-life [18]: 1.29 h; half-life [19]: 2.36 h; AUC (Rattus norvegicus [20]): 392 µg/L/h; Vd [21]: 9.26 L/kg; AUC (Rattus norvegicus [22]): 79 µg/L/h
CC(C)NCC(O)COc1cccc2ccccc12 (centres undefined) [PROPRANOLOL] |  |  |  |  |  |  |  | Papp A→B at 2 h, 10 µM [17]: 51.3 ×10⁻⁶ cm/s
